HELM strings list units from the 5' end as sugar, base in round brackets, then linkage (d deoxyribose, r ribose, m 2'-O-methyl, p phosphodiester). Strings are as the collection lists them; they lack the last nucleoside at the 3' end of the tested compound. [moe] = 2'-O-(2-methoxyethyl) (MOE); [sp] = phosphorothioate linkage; [m5C] = 5-methylcytosine
Target: UBE3A-ATS
Assay: mouse, dose not given
Details: ASO

Substance	3 h FOB score [score 0-7]
RNA1{[moe]([m5C])[sp].[moe]([m5C])p.[moe](A)p.[moe](G)p.[moe](G)p.d(T)[sp].d(G)[sp].d(T)[sp].d([m5C])[sp].d(T)[sp].d(T)[sp].d(A)[sp].d(T)[sp].d(A)[sp].d(T)[sp].[moe]([m5C])p.[moe](T)p.[moe](A)[sp].[moe](T)}$$$$ (last 3' nucleoside missing)	1
RNA1{[moe]([m5C])[sp].[moe]([m5C])p.[moe](A)p.[moe](G)p.[moe](T)p.d(T)[sp].d(T)[sp].d(T)[sp].d([m5C])[sp].d(G)[sp].d([m5C])[sp].d([m5C])[sp].d([m5C])[sp].d(G)[sp].d(T)[sp].[moe](T)p.[moe](A)p.[moe]([m5C])[sp].[moe]([m5C])}$$$$ (last 3' nucleoside missing)	4.5
RNA1{[moe]([m5C])[sp].[moe]([m5C])p.[moe](A)p.[moe](G)p.[moe]([m5C])p.d([m5C])[sp].d(A)[sp].d(G)[sp].d(G)[sp].d(T)[sp].d(G)[sp].d(T)[sp].d([m5C])[sp].d(T)[sp].d(T)[sp].[moe](A)p.[moe](T)p.[moe](A)[sp].[moe](T)}$$$$ (last 3' nucleoside missing)	3.8
RNA1{[moe]([m5C])[sp].[moe]([m5C])p.[moe](A)p.[moe](T)p.[moe](T)p.d(T)[sp].d(T)[sp].d(G)[sp].d(A)[sp].d([m5C])[sp].d([m5C])[sp].d(T)[sp].d(T)[sp].d([m5C])[sp].d(T)[sp].[moe](T)p.[moe](A)p.[moe](G)[sp].[moe]([m5C])}$$$$ (last 3' nucleoside missing)	1
RNA1{[moe]([m5C])[sp].[moe]([m5C])p.[moe](A)p.[moe](T)p.[moe](T)p.d([m5C])[sp].d(A)[sp].d(G)[sp].d([m5C])[sp].d(A)[sp].d([m5C])[sp].d(T)[sp].d(T)[sp].d(A)[sp].d(G)[sp].[moe](G)p.[moe](T)p.[moe](A)[sp].[moe](G)}$$$$ (last 3' nucleoside missing)	3.7
RNA1{[moe]([m5C])[sp].[moe]([m5C])p.[moe](A)p.[moe]([m5C])p.[moe](A)p.d([m5C])[sp].d(A)[sp].d(T)[sp].d(A)[sp].d(T)[sp].d(A)[sp].d(G)[sp].d(G)[sp].d([m5C])[sp].d(T)[sp].[moe](A)p.[moe](G)p.[moe]([m5C])[sp].[moe]([m5C])}$$$$ (last 3' nucleoside missing)	1
RNA1{[moe]([m5C])[sp].[moe]([m5C])p.[moe](T)p.[moe](A)p.[moe](T)p.d(A)[sp].d(G)[sp].d(G)[sp].d(T)[sp].d(G)[sp].d(G)[sp].d([m5C])[sp].d([m5C])[sp].d(T)[sp].d(T)[sp].[moe]([m5C])p.[moe](A)p.[moe](G)[sp].[moe](T)}$$$$ (last 3' nucleoside missing)	5
RNA1{[moe]([m5C])[sp].[moe]([m5C])p.[moe](T)p.[moe](T)p.[moe](T)p.d([m5C])[sp].d(T)[sp].d(A)[sp].d(T)[sp].d(T)[sp].d(T)[sp].d([m5C])[sp].d(A)[sp].d(G)[sp].d(A)[sp].[moe]([m5C])p.[moe]([m5C])p.[moe](G)[sp].[moe](A)}$$$$ (last 3' nucleoside missing)	2.3
RNA1{[moe]([m5C])[sp].[moe]([m5C])p.[moe](T)p.[moe]([m5C])p.[moe](T)p.d(T)[sp].d([m5C])[sp].d([m5C])[sp].d(A)[sp].d(A)[sp].d(A)[sp].d(A)[sp].d(T)[sp].d(T)[sp].d([m5C])[sp].[moe](T)p.[moe]([m5C])p.[moe](A)[sp].[moe]([m5C])}$$$$ (last 3' nucleoside missing)	0
RNA1{[moe]([m5C])[sp].[moe]([m5C])p.[moe]([m5C])p.[moe](A)p.[moe](T)p.d(T)[sp].d(A)[sp].d(G)[sp].d(A)[sp].d([m5C])[sp].d([m5C])[sp].d([m5C])[sp].d(A)[sp].d(T)[sp].d(G)[sp].[moe](G)p.[moe]([m5C])p.[moe](T)[sp].[moe]([m5C])}$$$$ (last 3' nucleoside missing)	7
RNA1{[moe]([m5C])[sp].[moe]([m5C])p.[moe]([m5C])p.[moe](A)p.[moe](T)p.d(T)[sp].d([m5C])[sp].d(A)[sp].d(G)[sp].d([m5C])[sp].d(A)[sp].d([m5C])[sp].d(T)[sp].d(T)[sp].d(A)[sp].[moe](G)p.[moe](G)p.[moe](T)[sp].[moe](A)}$$$$ (last 3' nucleoside missing)	4.8

From the OligoGym collection
